{
  "source": "patent US4692443A",
  "about": "“3-bicyclicpyridinium-methyl cephalosporins” (Eli Lilly and Company, priority 1984, dated 1987)",
  "format_in_all_cases": "cell-based",
  "key": {"Staph. aureus X1.1": {"system": "Staph. aureus X1.1", "assay": "standard in vitro agar dilution assay (MIC)", "settings": "Staphylococcus aureus; Staph. aureus strain X1.1; read-out: Agar Dilution MIC"}, "Staph. aureus V41": {"system": "Staph. aureus V41", "assay": "standard in vitro agar dilution assay (MIC)", "settings": "Staphylococcus aureus"}, "Staph. aureus X400": {"system": "Staph. aureus X400", "assay": "standard in vitro agar dilution assay (MIC)", "settings": "Staphylococcus aureus; Staph. aureus strain X400"}, "Staph. aureus S13E": {"system": "Staph. aureus S13E", "assay": "microbe, parasite or virus in culture", "settings": "Staphylococcus aureus, read-out: Agar Dilution MIC"}, "Staph. epi EPI1": {"system": "Staph. epi EPI1", "assay": "standard in vitro agar dilution assay (MIC)", "settings": "Staph. epi strain EPI1"}, "Staph. epi 222": {"system": "Staph. epi 222", "assay": "standard in vitro agar dilution assay (MIC)", "settings": "Staph. epi strain 222"}, "Strep. D X66": {"system": "Strep. D X66", "assay": "standard in vitro agar dilution assay (MIC)", "settings": "Strep. D strain X66"}, "Strep. D 9960": {"system": "Strep. D 9960", "assay": "standard in vitro agar dilution assay (MIC)", "settings": "Strep. D strain 9960"}, "E. coli N10": {"system": "E. coli N10", "assay": "standard in vitro agar dilution assay (MIC)", "settings": "Escherichia coli"}, "Klebsiella KAE": {"system": "Klebsiella KAE", "assay": "standard in vitro agar dilution assay (MIC)", "settings": "read-out: Agar Dilution MIC"}, "[1]": {"system": "Enterobacter aerogenes C32", "assay": "standard in vitro agar dilution assay (MIC)", "settings": "Klebsiella aerogenes"}, "Pseudomonas X528": {"system": "Pseudomonas X528", "assay": "standard in vitro agar dilution assay (MIC)", "settings": "Pseudomonas strain X528", "from_the_text": "The antibacterial activity of several representative compounds of the invention has been evaluated in standard in vitro agar dilution assays. The following Table presents typical minimum inhibitory concentrations (MIC's) in μg /ml for exemplary compounds when evaluated against typical Gram + and Gram - microorganism."}, "Pseudomonas X239": {"system": "Pseudomonas X239", "assay": "standard in vitro agar dilution assay (MIC)", "settings": "Pseudomonas strain X239"}, "Strep. A C203": {"system": "Strep. A C203", "assay": "standard in vitro agar dilution assay (MIC)", "settings": "Strep. A strain C203"}, "Strep. PN PARK": {"system": "Strep. PN PARK", "assay": "standard in vitro agar dilution assay (MIC)", "settings": "Strep. PN strain PARK"}, "H. influ. C.L.": {"system": "H. influ. C.L.", "assay": "standard in vitro agar dilution assay (MIC)", "settings": "H. influ. strain C.L.; read-out: Agar Dilution MIC"}, "H. influ. 76": {"system": "H. influ. 76", "assay": "standard in vitro agar dilution assay (MIC)", "settings": "H. influ. strain 76; read-out: Agar Dilution MIC"}, "E. coli EC14": {"system": "E. coli EC14", "assay": "standard in vitro agar dilution assay (MIC)", "settings": "Escherichia coli; E. coli strain EC14; read-out: Agar Dilution MIC"}, "E. coli TEM": {"system": "E. coli TEM", "assay": "standard in vitro agar dilution assay (MIC)", "settings": "Escherichia coli; E. coli strain TEM; read-out: Agar Dilution MIC"}, "Klebsiella X26": {"system": "Klebsiella X26", "assay": "standard in vitro agar dilution assay (MIC)", "settings": "Klebsiella strain X26; read-out: Agar Dilution MIC"}, "Klebsiella X68": {"system": "Klebsiella X68", "assay": "standard in vitro agar dilution assay (MIC)", "settings": "Klebsiella strain X68; read-out: Agar Dilution MIC"}, "Salmonella X514": {"system": "Salmonella X514", "assay": "standard in vitro agar dilution assay (MIC)", "settings": "Salmonella strain X514; read-out: Agar Dilution MIC"}, "Serratia X99": {"system": "Serratia X99", "assay": "standard in vitro agar dilution assay (MIC)", "settings": "Serratia strain X99; read-out: Agar Dilution MIC"}},
  "note": "Where two headings read alike, the source gives them in different places.",
  "data": [
    {"smiles": "CC(C)(O/N=C(\\C(=O)N[C@@H]1C(=O)N2C(C(=O)[O-])=C(C[n+]3ccccc3)CS[C@H]12)c1csc(N)n1)C(=O)O", "note": "[Ceftazidime, ceftazidime, reference compound]", "values": [
      {"measurement": "MIC", "setting": "Staph. aureus X1.1", "value": 8, "unit": "µg/mL"},
      {"measurement": "MIC", "setting": "Staph. aureus V41; V41, read-out: Agar Dilution MIC", "value": 32, "unit": "µg/mL"},
      {"measurement": "MIC", "setting": "Staph. aureus X400", "value": 128, "unit": "µg/mL"},
      {"measurement": "MIC", "setting": "Staph. aureus S13E", "value": 32, "unit": "µg/mL"},
      {"measurement": "MIC", "setting": "Staph. epi EPI1", "value": 16, "unit": "µg/mL"},
      {"measurement": "MIC", "setting": "Staph. epi 222", "value": 16, "unit": "µg/mL"},
      {"measurement": "MIC", "setting": "Strep. D X66", "value": "> 128", "unit": "µg/mL"},
      {"measurement": "MIC", "setting": "Strep. D 9960", "value": 16, "unit": "µg/mL"},
      {"measurement": "MIC", "setting": "E. coli N10; N10, read-out: Agar Dilution MIC", "value": 0.25, "unit": "µg/mL"},
      {"measurement": "MIC", "setting": "Klebsiella KAE; Klebsiella", "value": 0.5, "unit": "µg/mL"},
      {"measurement": "MIC", "setting": "[1]; C32, read-out: Agar Dilution MIC", "value": 0.25, "unit": "µg/mL"},
      {"measurement": "MIC", "setting": "Pseudomonas X528", "value": 2, "unit": "µg/mL"},
      {"measurement": "MIC", "setting": "Pseudomonas X239", "value": 2, "unit": "µg/mL"}
    ]},
    {"smiles": "CO/N=C(\\C(=O)NC1C(=O)N2C(C(=O)[O-])=C(C[n+]3ccc4[nH]cnc4c3)CSC12)c1csc(N)n1", "note": "(stereo not drawn) [Example 2, syn-7-[2-(2-Aminotiazol-4-yl)-2-methoxyiminoacetamido]-3-(1H-imidazolo[4,5-c]pyridinium-5-ylmethyl)-3-cephem-4-carboxylate]", "values": [
      {"measurement": "MIC", "setting": "Staph. aureus X1.1", "value": 1, "unit": "µg/mL"},
      {"measurement": "MIC", "setting": "Staph. aureus V41; Staph. aureus strain V41, read-out: Agar Dilution MIC", "value": 8, "unit": "µg/mL"},
      {"measurement": "MIC", "setting": "Staph. aureus X400", "value": 64, "unit": "µg/mL"},
      {"measurement": "MIC", "setting": "Staph. aureus S13E", "value": 8, "unit": "µg/mL"},
      {"measurement": "MIC", "setting": "Staph. epi EPI1", "value": 4, "unit": "µg/mL"},
      {"measurement": "MIC", "setting": "Staph. epi 222", "value": 1, "unit": "µg/mL"},
      {"measurement": "MIC", "setting": "Strep. A C203", "value": "< 0.008", "unit": "µg/mL"},
      {"measurement": "MIC", "setting": "Strep. PN PARK", "value": "< 0.008", "unit": "µg/mL"},
      {"measurement": "MIC", "setting": "Strep. D 9960", "value": 2, "unit": "µg/mL"},
      {"measurement": "MIC", "setting": "H. influ. C.L.", "value": 0.015, "unit": "µg/mL"},
      {"measurement": "MIC", "setting": "H. influ. 76", "value": 0.015, "unit": "µg/mL"},
      {"measurement": "MIC", "setting": "E. coli N10; E. coli strain N10, read-out: Agar Dilution MIC", "value": 0.015, "unit": "µg/mL"},
      {"measurement": "MIC", "setting": "E. coli EC14", "value": "< 0.008", "unit": "µg/mL"},
      {"measurement": "MIC", "setting": "E. coli TEM", "value": "< 0.008", "unit": "µg/mL"},
      {"measurement": "MIC", "setting": "Klebsiella X26", "value": "< 0.008", "unit": "µg/mL"},
      {"measurement": "MIC", "setting": "Klebsiella KAE; Klebsiella strain KAE", "value": 4, "unit": "µg/mL"},
      {"measurement": "MIC", "setting": "Klebsiella X68", "value": "< 0.008", "unit": "µg/mL"},
      {"measurement": "MIC", "setting": "[1]; Enterobacter aerogenes strain C32, read-out: Agar Dilution MIC", "value": 0.03, "unit": "µg/mL"},
      {"measurement": "MIC", "setting": "Salmonella X514", "value": "< 0.008", "unit": "µg/mL"},
      {"measurement": "MIC", "setting": "Pseudomonas X528", "value": 1, "unit": "µg/mL"},
      {"measurement": "MIC", "setting": "Pseudomonas X239", "value": 2, "unit": "µg/mL"},
      {"measurement": "MIC", "setting": "Serratia X99", "value": 0.015, "unit": "µg/mL"}
    ]}
  ]
}
